Data set [1] is described as follows: Dissolution of CBD in ethanol:water mixtures. Format: physicochemical. Here is the method:
The protocol of Example 9 was followed with the 60 mg initially dissolved in ethanol only. […] The remaining five portions were diluted to an ethanol to water ratio of 7:3, 6:4, 5:5, 4:6 or 3:7. The portions were then filtered to retrieve the cross-linked polymer.
At 50:50 EtOH:H2O, CBD dissolves provided that EtOH is added first then H2O. At 45:56 EtOH:H2O, the 2 mg/mL CBD solution is cloudy. […] Slowly adding H2O to the CBD, EtOH, polymer mixture results in very high capture of 98% at a 3:7 EtOH:H2O.
The portions were filtered by pipette filtration to retrieve the cross-linked polymer. The cross-linked polymer was then flushed with DMSO. […] Ten percent of the CBD is not in solution when CBD in 3:7 EtOH:H2O is used. The calculated cyclodextrin capacity within the polymer is 8:1 polymer:CBD.

Data set [2] can be described thus: Capture and release of target molecule by cross-linked polymer (HDI-linked cyclodextrin), slurry protocol. It is filed as physicochemical. Particulars: Example 9; 2 mg/mL in 1:1 ethanol:water, 10:1.
Experimental: A mass of CBD was dissolved in ethanol to form a stock solution. A reference sample of the stock solution was diluted with ethanol to obtain a target CBD or other target molecule concentration for a reference measurement. A reaction sample was taken from the remaining stock solution. A cross-linked polysaccharide was combined with the reaction sample in a ratio relative to the CBD or other target molecule concentration present in the reaction sample (by mass) as specified in Examples. The cross-linked polymer is HDI-linked cyclodextrin prepared with a ratio of 8:1 HDI to cyclodextrin.
Water is combined with the reaction sample until the reaction sample reaches a target CBD or other target molecule concentration, and a target ethanol to water ratio. The reaction mixture including the water is filtered at a cutoff size of between 75 μm to 4,000 μm aperture size, or exposed to a magnetic field with a neodymium magnet through the wall of a flask, to retrieve the cross-linked polymer bound with CBD or other target molecule concentration. Once retrieved, the cross-linked polymer is flushed with a dissociation fluid for dissolving the target molecule.
Ten milligrams of CBD were dissolved in a 10 mL mixture of 1:1 ethanol to water to produce a reaction mixture with a CBD concentration of 1 mg/mL. A 1 mL aliquot was then taken from the reaction mixture as a reference sample (t=0). […]

For the molecule `C=C(C)[C@@H]1CCC(C)=C[C@H]1c1c(O)cc(CCCCC)cc1O` [CBD, cannabidiol], the “dissolution of CBD” value is reported as “did not dissolve” in data set [1] (6 mg/mL in 1:1 EtOH:H2O, sonication and heating); “not fully dissolved” in data set [1] (40:60 EtOH:H2O, 2 mg/mL); “cloudy” in data set [1] (45:56 EtOH:H2O, 2 mg/mL); “dissolves” in data set [1] (50:50 EtOH:H2O, 2 mg/mL, EtOH added first then H2O). The “CBD not in solution” value in data set [1] (CBD in 3:7 EtOH:H2O, Example 17) is “Ten”. Besides, in data set [2], the “time to capture plateau” value is listed as “about 5 minutes”.

The values are drawn from patent US20240150270A1, “METHOD FOR SELECTIVE RECOVERY OF LIPOPHILIC COMPOUNDS” (priority 2021, published 2024).
